Our source for the Activity, inhibition and IC50 values is ChEMBL document CHEMBL2375222, “Synthesis of 1H-1,2,3-triazole linked β-lactam-isatin bi-functional hybrids and preliminary analysis of in vitro activity against the protozoal parasite Trichomonas vaginalis” (Eur J Med Chem, 2013).

Data set [1] concerns CHO-K1. Nature of the data set: Cytotoxicity against CHOK1 cells assessed as change in cell morphology at 100 uM by light microscopy. It is filed as cell-based, Cricetulus griseus. To be noted: chinese hamster, cho-k1, 100 µM.
Data set [2] relates to Trichomonas vaginalis. The experiment in a line: […] activity against Trichomonas vaginalis G3 at 100 uM after 24 hrs by hemocytometry. To be noted: G3, 24 h. It is filed as functional.
Data set [3] relates to Trichomonas vaginalis. The experiment in a line: […] activity against Trichomonas vaginalis G3 at 10 uM after 24 hrs by hemocytometry. The note with it: G3, 24 h. It is filed as functional.
Data set [4] has as its system Trichomonas vaginalis. The experiment in a line: […] activity against Trichomonas vaginalis G3 after 24 hrs by hemocytometry. It is filed as functional. To be noted: G3, 24 h.
Data set [5] has as its system CHO-K1. The experiment in a line: Cytotoxicity against CHOK1 cells assessed as change in cell morphology by light microscopy. It is filed as cell-based. The note with it: Cricetulus griseus.

Molecules are shown by their SMILES.

`Cc1ccc2c(c1)C(=O)C(=O)N2Cc1cn([C@@H]2C(=O)N(c3ccccc3)[C@@H]2/C=C/c2ccccc2)nn1`: in the data set with CHO-K1 [1], the Activity result is recorded as “Toxic”. In addition, the inhibition at 100 µM with Trichomonas vaginalis [2] is 82.6%. Further, in the data set on Trichomonas vaginalis [3], the inhibition at 10 µM was 0%.

Regarding `Cc1ccc(N2C(=O)[C@@H](n3cc(CN4C(=O)C(=O)c5ccccc54)nn3)[C@H]2/C=C/c2ccccc2)cc1`, in the data set with CHO-K1 [1], the Activity result was “Toxic”. In the data set on Trichomonas vaginalis [4], this molecule returned an IC50 of 27.5 µM. Besides, in the data set with Trichomonas vaginalis [2], at 100 µM the inhibition was 100%. The molecule also had an inhibition at 10 µM with Trichomonas vaginalis [3] of 4.9%.

Regarding `O=C1C(=O)N(Cc2cn([C@@H]3C(=O)N(C4CCCCC4)[C@@H]3/C=C/c3ccccc3)nn2)c2ccccc21`, in the data set on CHO-K1 [1], the Activity entry was “Toxic”. Further, the inhibition at 100 µM in the data set on Trichomonas vaginalis [2] was 100%. In the data set on Trichomonas vaginalis [3], this molecule had an inhibition at 10 µM of 26.8%.

For the molecule `O=C1C(=O)N(Cc2cn([C@@H]3C(=O)N(Cc4ccccc4)[C@@H]3/C=C/c3ccccc3)nn2)c2ccc(Cl)cc21` (relative stereo), in the data set on CHO-K1 [1], the Activity entry is recorded as “Toxic”. Besides, the inhibition at 100 µM in the data set on Trichomonas vaginalis [2] is 67.4%. The molecule also showed an inhibition at 10 µM with Trichomonas vaginalis [3] of 7.3%.

For `O=C1C(=O)N(Cc2cn([C@@H]3C(=O)N(c4ccc(F)cc4)[C@@H]3/C=C/c3ccccc3)nn2)c2ccccc21` (relative stereo), the IC50 in the data set with CHO-K1 [5] and in the data set on Trichomonas vaginalis [4] was 7.69 µM in each case. Moreover, the inhibition at 100 µM in the data set on Trichomonas vaginalis [2] was determined as 100%. In addition, at 10 µM the inhibition in the data set with Trichomonas vaginalis [3] was 38.5%.

Consider `O=C1C(=O)N(Cc2cn([C@@H]3C(=O)N(c4ccc(F)cc4)[C@@H]3/C=C/c3ccccc3)nn2)c2ccc(F)cc21` (relative stereo), for which the Activity result with CHO-K1 [1] is “Toxic”. This molecule came in with an inhibition at 100 µM in the data set on Trichomonas vaginalis [2] of 100%. In the data set with Trichomonas vaginalis [3], this molecule registered an inhibition at 10 µM of 19.5%.

For `O=C1C(=O)N(Cc2cn([C@@H]3C(=O)N(c4ccc(F)cc4)[C@@H]3/C=C/c3ccccc3)nn2)c2ccc(Cl)cc21` (relative stereo), in the data set with CHO-K1 [1], the Activity entry is given as “Toxic”. This molecule gave an inhibition at 100 µM in the data set on Trichomonas vaginalis [2] of 100%. Testing at 10 µM in the data set on Trichomonas vaginalis [3] gave an inhibition of 14.6%.

For the molecule `O=C1C(=O)N(Cc2cn([C@@H]3C(=O)N(c4ccc(F)cc4)[C@@H]3/C=C/c3ccccc3)nn2)c2ccc(Br)cc21` (relative stereo), the Activity entry in the data set on CHO-K1 [1] is “Toxic”. For the same molecule, in the data set with Trichomonas vaginalis [2], testing at 100 µM gave an inhibition of 100%. The same molecule returned an inhibition at 10 µM in the data set with Trichomonas vaginalis [3] of 0%.

Turning to `O=C1C(=O)N(Cc2cn([C@@H]3C(=O)N(c4ccccc4)[C@@H]3/C=C/c3ccccc3)nn2)c2ccccc21` (relative stereo), the Activity result in the data set with CHO-K1 [1] was “Toxic”. In the data set on Trichomonas vaginalis [2], this molecule returned an inhibition at 100 µM of 100%. This molecule also displayed an inhibition at 10 µM in the data set on Trichomonas vaginalis [3] of 100%.

For the molecule `O=C1C(=O)N(Cc2cn([C@@H]3C(=O)N(c4ccccc4)[C@@H]3/C=C/c3ccccc3)nn2)c2ccc(F)cc21` (relative stereo), the Activity result with CHO-K1 [1] was “Toxic”. This molecule gave an IC50 with Trichomonas vaginalis [4] of 7.06 µM. In the data set with Trichomonas vaginalis [2], the inhibition at 100 µM is 100%. In the data set on Trichomonas vaginalis [3], this molecule showed an inhibition at 10 µM of 58.5%.

Consider `O=C1C(=O)N(Cc2cn([C@@H]3C(=O)N(c4ccccc4)[C@@H]3/C=C/c3ccccc3)nn2)c2ccc(Cl)cc21` (relative stereo), for which the Activity result in the data set with CHO-K1 [1] is recorded as “Toxic”. The molecule further displayed an IC50 in the data set with Trichomonas vaginalis [4] of 9.82 µM. In the data set on Trichomonas vaginalis [2], this molecule displayed an inhibition at 100 µM of 100%. The molecule also returned an inhibition at 10 µM with Trichomonas vaginalis [3] of 61%.

Consider `O=C1C(=O)N(Cc2cn([C@@H]3C(=O)N(c4ccccc4)[C@@H]3/C=C/c3ccccc3)nn2)c2ccc(Br)cc21` (relative stereo), for which the Activity entry with CHO-K1 [1] is on record as “Toxic”. This molecule showed an IC50 in the data set on Trichomonas vaginalis [4] of 9.34 µM. The molecule further yielded an inhibition at 100 µM with Trichomonas vaginalis [2] of 100%. Moreover, the inhibition at 10 µM in the data set on Trichomonas vaginalis [3] amounted to 83%.

On to `O=C1C(=O)N(Cc2cn([C@@H]3C(=O)N(c4ccc(Cl)cc4)[C@@H]3/C=C/c3ccccc3)nn2)c2ccccc21` (relative stereo), for which the Activity entry in the data set on CHO-K1 [1] is “Toxic”. Further, the IC50 in the data set on Trichomonas vaginalis [4] was determined as 8.27 µM. In the data set with Trichomonas vaginalis [2], this molecule registered an inhibition at 100 µM of 100%. The molecule further came in with an inhibition at 10 µM in the data set with Trichomonas vaginalis [3] of 80.5%.

Regarding `O=C1C(=O)N(Cc2cn([C@@H]3C(=O)N(c4ccc(Cl)cc4)[C@@H]3/C=C/c3ccccc3)nn2)c2ccc(Cl)cc21` (relative stereo), the Activity result in the data set with CHO-K1 [1] is given as “Toxic”. In addition, the IC50 with Trichomonas vaginalis [4] was determined as 9.94 µM. The molecule also showed an inhibition at 100 µM in the data set on Trichomonas vaginalis [2] of 100%. In the data set on Trichomonas vaginalis [3], the inhibition at 10 µM stood at 53.7%.

Regarding `Cc1ccc(N2C(=O)[C@@H](n3cc(CN4C(=O)C(=O)c5cc(F)ccc54)nn3)[C@H]2/C=C/c2ccccc2)cc1` (relative stereo), the Activity result in the data set with CHO-K1 [1] is “Toxic”. It took 22.1 µM to reach half-maximal inhibition in the data set on Trichomonas vaginalis [4] (IC50). In the data set on Trichomonas vaginalis [2], this molecule came in with an inhibition at 100 µM of 100%. In the data set with Trichomonas vaginalis [3], this molecule yielded an inhibition at 10 µM of 58.5%.

Consider `Cc1ccc(N2C(=O)[C@@H](n3cc(CN4C(=O)C(=O)c5cc(Cl)ccc54)nn3)[C@H]2/C=C/c2ccccc2)cc1` (relative stereo), for which the Activity entry with CHO-K1 [1] is “Toxic”. Besides, the IC50 with Trichomonas vaginalis [4] worked out at 10.1 µM. This molecule also had an inhibition at 100 µM with Trichomonas vaginalis [2] of 100%. The same molecule returned an inhibition at 10 µM with Trichomonas vaginalis [3] of 48.8%.

On to `O=C1C(=O)N(Cc2cn([C@@H]3C(=O)N(C4CCCCC4)[C@@H]3/C=C/c3ccccc3)nn2)c2ccc(F)cc21` (relative stereo), for which, in the data set on CHO-K1 [1], the Activity result is on record as “Toxic”. In addition, in the data set with Trichomonas vaginalis [2], at 100 µM the inhibition was 100%. Also, the inhibition at 10 µM in the data set on Trichomonas vaginalis [3] stood at 0%.

For `O=C1C(=O)N(Cc2cn([C@@H]3C(=O)N(C4CCCCC4)[C@@H]3/C=C/c3ccccc3)nn2)c2ccc(Cl)cc21` (relative stereo), the Activity entry in the data set on CHO-K1 [1] is reported as “Toxic”. The molecule also registered an inhibition at 100 µM with Trichomonas vaginalis [2] of 100%. In addition, the inhibition at 10 µM in the data set with Trichomonas vaginalis [3] is 7.3%.

Consider `O=C1C(=O)N(Cc2cn([C@@H]3C(=O)N(C4CCCCC4)[C@@H]3/C=C/c3ccccc3)nn2)c2ccc(Br)cc21` (relative stereo), for which, in the data set on CHO-K1 [1], the Activity result is given as “Toxic”. Besides, the inhibition at 100 µM in the data set on Trichomonas vaginalis [2] was determined as 100%. Further, at 10 µM the inhibition in the data set with Trichomonas vaginalis [3] was 4.9%.

Turning to `Cc1ccc2c(c1)C(=O)C(=O)N2Cc1cn([C@@H]2C(=O)N(C3CCCCC3)[C@@H]2/C=C/c2ccccc2)nn1` (relative stereo), the Activity entry in the data set on CHO-K1 [1] was “Toxic”. The same molecule showed an IC50 in the data set with Trichomonas vaginalis [4] of 44.5 µM. Moreover, the inhibition at 100 µM in the data set on Trichomonas vaginalis [2] was 95.7%. In addition, the inhibition at 10 µM in the data set on Trichomonas vaginalis [3] came out at 9.8%.

Take `O=C1C(=O)N(Cc2cn([C@@H]3C(=O)N(Cc4ccccc4)[C@@H]3/C=C/c3ccccc3)nn2)c2ccccc21` (relative stereo): in the data set with CHO-K1 [1], the Activity entry was “Toxic”. Half-maximal inhibition with Trichomonas vaginalis [4] (IC50) required 8.68 µM. In the data set with Trichomonas vaginalis [2], this molecule yielded an inhibition at 100 µM of 100%. Further, in the data set with Trichomonas vaginalis [3], the inhibition at 10 µM was 7.8%.

With `O=C1C(=O)N(Cc2cn([C@@H]3C(=O)N(Cc4ccccc4)[C@@H]3/C=C/c3ccccc3)nn2)c2ccc(F)cc21` (relative stereo), the Activity entry in the data set with CHO-K1 [1] is on record as “Toxic”. This molecule also yielded an inhibition at 100 µM in the data set on Trichomonas vaginalis [2] of 19.6%. This molecule had an inhibition at 10 µM with Trichomonas vaginalis [3] of 0%.

Usually inhibition stands for the change of the read-out against control, counted positive when it falls. A lower inhibition goes with little suppression. For orientation: IC50 means the concentration that gives 50% inhibition.
